“Also recorded” adds a separate entry of the source.
Key:
man = test: clinical use in man; assay type: in vivo
mice [1] = test: motility reduced by hypoxia treatment (motor recovery); assay type: in vivo; settings: mice, i.p.
mice [2] = test: motility reduced by habituation to a cage (residual motility); assay type: in vivo; settings: i.p., from 32 mg/kg upwards
Protocol: (§1) The following text summarises a part of the results of the tests which were carried out with the products according to the invention, these products (unless otherwise stated) being administered intraperitoneally, in suspension in a gum solution (gum arabic), in a volume of 20 ml/kg in the case of mice and of 5 ml/kg in the case of rats.
Mice which have remained for 18 hours in the actimeters are given CRL 40,373. They are immediately replaced in their cages and, after a period of half an hour, their motility is recorded for 30 minutes (6 animals per dose, 12 comparison animals).
After remaining for 18 hours in the actimeters, the mice receive CRL 40,385. Immediately afterwards they are replaced in their cage and half an hour afterwards the recording of the motility starts and is continued for 30 minutes.

mice [3] = test: inter-group aggressiveness (number of fights); assay type: in vivo; settings: mice, i.p.
Protocol: as §1
After three weeks' residence in each of the halves of a cage divided by an opaque partition, the mice receive CRL 40,373 thirty minutes before being brought together by withdrawing the partition.
After 18 days' residence on either side of a partition separating their cage in the middle, groups of 3 mice receive CRL 40,385 and are brought together half an hour later by withdrawing the partition, and the number of fights which take place in the course of 15 minutes is noted.

mice [4] = test: electrical shock (convulsing effects); assay type: in vivo, mice (EVIC CEBA strain); settings: mice, i.p., large dose
Protocol: as §1
(§2) The test is carried out on batches of 10 sensitive mice (EVIC CEBA strain), 30 minutes after the administration of CRL 40,373.
(§3) Batches of 10 mice are subjected to the test thirty minutes after having received CRL 40,385.

rats [5] = test: interaction with apomorphine (stereotype behaviour in rats); assay type: in vivo
Protocol: as §1
Batches of six rats are each given a subcutaneous injection of apomorphine (0.5 mg/kg) 30 minutes after the administration of CRL 40,373.
Batches of 6 rats are given a subcutaneous injection of 0.5 mg/kg of apomorphine 30 minutes after the administration of CRL 40,385.

[6] = tested on: awake rats with spontaneous hypertension; test: hypotensive action in awake rats with spontaneous hypertension; assay type: in vivo; settings: 100 mg/kg orally
Protocol: In the tests reported below, CRL 40,385 was administered in suspension in a solution of gum arabic, in a volume of 2 ml/kg. The hypotensive action was studied in awake rats with spontaneous hypertension. One batch of 7 rats is given 100 mg/kg of CRL 40,385 orally, followed, 2 hours later, by a fresh dose of 100 mg/kg of this product.

[7] = tested on: catalepsy induced by prochlorperazine; test: anticataleptic effect (prochlorperazine-induced catalepsy); assay type: in vivo; settings: i.p., 256 mg/kg
Protocol: CRL 40,385 or amantadine are administered intraperitoneally 4 hours and 30 minutes after the injection of prochlorperazine (12.5 mg/kg administered intraperitoneally). The catalepsy is assessed every 30 minutes by the plug test (9 cm), the four plug test, the test using parallel bars and the test of crossing the paws on the same side.

mice [8] = test: interaction with oxotremorine (temperature, trembling, peripheral cholinergic symptoms); assay type: in vivo
mice [9] = test: traction (motor incoordination); assay type: in vivo, mice (EVIC CEBA strain); settings: i.p.
rats [10] = test: interaction with amphetamine (stereotypies in rats); assay type: in vivo
Protocol: as §1
30 minutes after the administration of CRL 40,373, amphetamine is injected intraperitoneally at a dose of 2 mg/kg.
Thirty minutes after the administration of CRL 40,385 the rats are given an intraperitoneal injection of 2 mg/kg of amphetamine (6 animals per dose).

central nervous system = test: psychopharmacological study / behaviour; assay type: in vivo, mice; settings: mouse, in vivo
mice [11] = test: spontaneous motility (actimeter); assay type: in vivo; settings: i.p.
Protocol: as §1
Thirty minutes after having been given CRL 40,373, the mice (6 per dose, 12 comparison animals) are placed in an actimeter, where their motility is recorded for half an hour.
Thirty minutes after having been given CRL 40,385, the mice are placed in actimeters where their motility is recorded for half an hour.

rats [12] = test: prolonged conditioning to take avoiding action (shuttle box); assay type: in vivo
Source text: Rats placed in a shuttle box are conditioned to avoid an electric shock by changing sides. The shock is preceded by a sound and light stimulus lasting 3 seconds, which ceases when sides are changed or after 8 seconds. The sequence is repeated every 20 seconds. Animals conditioned for several tens of minutes show a percentage of avoidance which is close to 100%. They continue to be subjected to the stimulus […] and gradually they reach a state in which they are no longer able to change sides during the period of 3 seconds during which no shock is delivered.
As a first approximation, such an effect can be likened to a resumption of conditioned activity in a tired animal.
Rats placed in a "shuttle box" are conditioned to avoid an electric shock lasting 5 seconds, by changing sides. The shock is preceded, for 3 seconds, by a sound and light stimulus which ceases when the rat changes side, or at the end of 8 seconds. The sequence repeats every 20 seconds. […] They continue to be subjected to the stimulus every 20 seconds and gradually they no longer succeed in avoiding the shock.
CRL 40,438 is then administered and any resumption of the avoidance movements is followed until the effect ceases.

[13] = toxicity (isolated mice, intraperitoneal); assay type: in vivo; settings: mouse, in vivo, ip, isolated mice
Protocol: as §1

mice [14] = test: toxicity (isolated mice, intraperitoneal); assay type: in vivo; settings: mice, i.p., at the doses mentioned above (64-1,024 mg/kg)
Protocol: as §1

mice [15] = test: four-plate test; assay type: in vivo, mice (EVIC CEBA strain); settings: mice, i.p.
Protocol: as §1, §2, §3

[16] = toxicity in mice in groups; settings: mouse, in vivo, ip
Protocol: as §1
The LD50 for intraperitoneal administration are as follows: […]

mice [17] = test: interaction with reserpine (hypothermia, ptosis); assay type: in vivo
rats [18] = test: interaction with methylphenidate (stereotypies); assay type: in vivo; settings: species not given
catalepsy = test: catalepsy, alone and after a neuroleptic agent; assay type: in vivo

Structure (SMILES): O=C(CC(=O)N(c1ccccc1)c1ccccc1)NO [CRL 40,385, α-(N,N-Diphenylcarbamoyl)-acetohydroxamic acid]
- clinical result (man; tablet or pill 100 mg, 2 to 3 per day): used clinically with success for anti-fatigue treatment
- minimal effective dose (mice [1]; Mus musculus, ip, read-out: dose at which improvement of motor recovery after hypoxia appears): 32 mg/kg
- motor recovery after hypoxia/anoxia by pressure reduction (mice [1]; 32 mg/kg increasing up to 512 mg/kg): causes an improvement in the motor recovery of mice
- motility reduced by habituation to the cage (mice [2]): causes a resumption of activity in animals habituated to their cage
- inter-group aggressiveness (mice [3]): reduces the aggressiveness
- convulsing effects of the electrical shock (mice [4]): counteracts the convulsing effects of the electrical shock
- apomorphine-induced stereotypies (rats [5]; rats, i.p., large dose, apomorphine 0.5 mg/kg s.c.): increase in the duration of the stereotypies induced by apomorphine
- hypotensive effect [6]: hypotensive effect
- arterial pressure (minimum) ([6]; 4 hours after second administration, from 166 mm Hg): 142 mm Hg
- pulse rate ([6]; after first administration, from 364): 334 beats/minute
- pulse rate change ([6]; after second administration): does not vary
- time to minimum arterial pressure ([6]; after second administration): 4 h
- reduction of arterial pressure ([6]; after second administration, statistically significant): 13%
- average reduction of arterial pressure ([6]; first administration): 10%
- reduction of pulse rate ([6]; first administration, statistically significant): 8%
- intensity of anticataleptic effect compared with amantadine [7]: less intense than that of an 8 times smaller dose of amantadine
- cataleptigenic action of prochlorperazine ([7]; prochlorperazine 12.5 mg/kg i.p.): counteracts the cataleptigenic action of prochlorperazine
- peripheral cholinergic symptoms of oxotremorine (mice [8]; mice, i.p.): does not modify the increase in salivation, lachrymation and defaecation
- oxotremorine-induced trembling (mice [8]; mice, i.p., 128 mg/kg and above all 512 mg/kg, oxotremorine 0.5 mg/kg i.p.): a reduction in the intensity of the trembling movements produced by oxotremorine
- temperature (oxotremorine-induced hypothermia) (mice [8]; mice, i.p., 32 and 128 mg/kg, oxotremorine 0.5 mg/kg i.p.): very partial antagonism against the hypothermia produced by oxotremorine
- motor incoordination / incapacity (mice [9]): does not cause a major motor deficiency
- amphetamine-induced stereotypies (rats [10]; i.p., 256 mg/kg): lengthening of the duration of the amphetamine-induced stereotypies
- body temperature effect (product alone) (central nervous system): does not have a hypothermic action
- psychopharmacological profile / conclusion (central nervous system): the most marked property is the anti-fatigue activity; also recorded: Some of its effects recall an anti-depressant type of activity, and others recall a psychostimulant type of activity; also recorded: psycho-stimulant properties
- spontaneous motility (mice [11]; mice, 128 and 256 mg/kg): moderate increase in the spontaneous motor activity
- spontaneous motility (mice [11]; mice, dose larger than 128 and 256 mg/kg): effect disappears
- resumption of avoiding actions (prolonged avoidance test) (rats [12]): causes a resumption of avoiding actions in animals
- LD50 [13]: 1500 mg/kg
- mortality (mice [14]): no mortality whatsoever
- number of incorrect moves (four-plate test) (mice [15]): does not produce an increase in the number of incorrect moves
- LD50 ([16]; mice in groups): 1050 mg/kg
- selectivity ratio ([16]; read-out: ratio LD50 (isolated mice)/LD50 (mice in groups)): 1.43
- reserpine-induced ptosis (mice [17]; i.p.): does not modify the intensity of the palpebral ptosis induced by reserpine
- reserpine-induced hypothermia (mice [17]; i.p., 64, 128 and 256 mg/kg, reserpine 2.5 mg/kg i.p.): moderate antagonism towards reserpine-induced hypothermia

Structure (SMILES): O=C(CN1C(=O)NC(c2ccccc2)(c2ccccc2)C1=O)NO [CRL 40,382, 3-(5,5-Diphenyl-hydantoinyl)-acetohydroxamic acid]
- clinical result (man; tablet 250 mg, 2 to 3 tablets per day): used clinically with success as a sedative
- effect of apomorphine (stereotypies) (rats [5]; species not given): does not counteract the effect of apomorphine
- effects of oxotremorine (mice [8]; mouse, in vivo): absence of antagonism to the effects of oxotremorine
- motor incoordination / incapacity (mice [9]): absence of catalepsy and of motor incapacity
- amphetamine-induced stereotypies (rats [10]; species not given): antagonism to the stereotypies induced by amphetamine
- other effects of amphetamine (hypermotility, group toxicity) (rats [10]; species not given): without altering the other effects of this substance (hypermotility, group toxicity)
- psychopharmacological profile / conclusion (central nervous system): antipsychotic activity associated with a moderate sedative effect
- spontaneous motility (mice [11]): moderate hypomotility
- effect of methylphenidate (stereotypies) (rats [18]): does not counteract the effect of apomorphine and of methylphenidate
- cataleptigenic effects of a neuroleptic agent (catalepsy; after a preliminary dose of a neuroleptic agent): boosts the cataleptigenic effects of a preliminary dose of a neuroleptic agent
- catalepsy (catalepsy; in vivo): does not in itself cause catalepsy; also recorded: absence of catalepsy

Source: US4151300A, “Acetohydroxamic acids” (Laboratoire L. Lafon, priority 1976, dated 1979)
